Source: patent US11260083B2, “Compositions and methods for treating and preventing graft versus host disease” (The Regents of the University of Michigan, priority 2016, dated 2022)

Legend:
[1] = test system: C3H.SW (H-2b) → C57BL/6J (H-2b) BMT recipients; experiment: MHC-matched, minor antigen mismatched BMT model with butyrate; format: in vivo, mouse
Protocol: BMTs were performed as previously described (Reddy, P. et al. A crucial role for antigen-presenting cells and alloantigen expression in graft-versus-leukemia responses. Nat. Med. 11, 1244-1249 (2005); 15). Briefly, syngeneic (BALB/c→BALC/c or C57BL/6J→C57BL/6J) and allogeneic (C57BL/6J→BALB/c or C3H.sw→C57BL/6J) recipients received lethal irradiation. On day −1, BALB/c recipients received a total of 800 cGy of irradiation (split dose separated by 3 hours) and B6 animals received a single dose of 1000 cGy. […] Survival was monitored daily and the recipient body weight and GVHD clinical scores were determined weekly, as described previously42. […]
Systemic administration of HDACi decreases acute GVHD (Reddy, P. et al. Histone deacetylase inhibitor suberoylanilide hydroxamic acid reduces acute graft-versus-host disease and preserves graft-versus-leukemia effect. Proc Natl Acad Sci USA 101, 3921-3926 (2004); Reddy, P. et al. Histone deacetylase inhibition modulates indoleamine 2,3-dioxygenasedependent DC functions and regulates experimental graft-versus-host disease in mice. J. Clin. Invest. 118, 2562-2573 (2008); Sun, Y. et al. Cutting edge: Negative regulation of dendritic cells through acetylation of the nonhistone protein STAT-3. J Immunol 182, 5899-5903 (2009)). It was therefore determined if increasing local levels of endogenous HDACi, butyrate, would impact GVHD severity. […]

CD326+ IECs = experiment: IEC viability assay with or without irradiation (6 Gy); format: cell-based, mouse; settings: ex vivo
Protocol: Primary intestinal epithelial cells (IECs) were obtained from C57BL/6J mice as described previously (Lefrangois, L. & Lycke, N. Isolation of Mouse Small Intestinal Intraepithelial Lymphocytes, Peyer's Patch, and Lamina Propria Cells. (John Wiley & Sons, Inc., 2001)). Briefly, luminal contents of intestine were flushed with CMF solution. Intestine was then minced into 0.5 cm pieces, washed with CMF four times, transferred to CMF/FBS/EDTA, and incubated at 37° C. for 60 minutes (shaking tubes every 10 minutes). Supernatant containing IECs was then transferred through […] cell filter followed by incubation on ice for 10 minutes to allow sedimentation. Supernatant was again transferred through a 75 μM cell filter. CD326+ IECs were next purified utilizing either FACS or anti-APC magnetic microbeads (Miltenyi Biotec Ltd., Auburn, Calif.) and an autoMACs (Miltenyi Biotec). […]
The potential mechanisms that contribute to butyrate-induced protection from severe GVHD were explored. […] The ability of butyrate-treated IECs to withstand damage mediated by alloreactive T cells was determined by isolating and culturing primary IECs with butyrate or vehicle control, overnight. […] Because butyrate is a primary energy source for IECs 1-13, it was next determined whether butyrate enhances survival and growth of IECs in vitro. […]

CCCC(=O)[O-].[Na+] [butyrate, sodium butyrate]
histological scores in both the intestines and liver ([1]; 21 days following BMT, minor antigen mismatch): decreased histological scores
survival ([1]; minor antigen mismatched model): improved survival
irradiation-induced apoptosis of IECs (CD326+ IECs; irradiation 6 Gy): conferred protection
toxicity to IECs (CD326+ IECs; no irradiation): not toxic
